Here are results for two molecules from patent publication US5208340A, “Process for producing an aryl-imido-peralkanoic acid by oxidizing the corresponding aryl-imido-alkanoic acid with hydrogen peroxide” (Ausimont S.p.A., priority 1990, dated 1993).

A short description of the data set: Solubility of PAC and PAP in halogenated solvents (Table 1). In kind it is physicochemical. Conditions: for solubility in the particular halogenated solvents (in words): methylene chloride and trichloromethane. An excerpt: The novel mechanism results in high conversion and yield under low temperature, low viscosity and internal system temperature control conditions. In addition, a very efficient product recovery can be obtained from the inorganic phase. Of course, the pressure should be such as to keep the system in the liquid phase.

`O=C(O)CCCCCN1C(=O)c2ccccc2C1=O` [PAC, ε-phthalimidohexanoic acid]: the “solubility in the particular halogenated solvents (in words)” value is “even more soluble”. The Solubility (Dichloromethane, at 14° C.) is recorded as 51.1 g per 100 cm^3 of solvent. Besides, where the note is “Dichloromethane, at 25° C.”, the Solubility was 67.3 g per 100 cm^3 of solvent. Besides, under “Trichloromethane, at 14° C.”, the Solubility was 52.3 g per 100 cm^3 of solvent. Also, under “Trichloromethane, at 25° C.”, the Solubility is given as 67.9 g per 100 cm^3 of solvent.
For the molecule `O=C(CCCCCN1C(=O)c2ccccc2C1=O)OO` [PAP, ε-phthalimidoperhexanoic acid], the “solubility in the particular halogenated solvents (in words)” value is reported as “soluble”. Where the note is “Dichloromethane, at 14° C.”, the Solubility was 26.3 g per 100 cm^3 of solvent. Further, the Solubility (Dichloromethane, at 25° C., (**) Estimated value) was 35.2 g per 100 cm^3 of solvent. Also, the Solubility (Trichloromethane, at 14° C.) is 26.1 g per 100 cm^3 of solvent. Also, under “Trichloromethane, at 25° C.”, the Solubility is recorded as 34.9 g per 100 cm^3 of solvent.
